# Measurements as given in PubChem BioAssay AID1919008 (Molecular Pharmacology Branch, DTP, NCI, 2023).
# pIC50: −log10 of the molar value.
# System: DMS-114 complex spheroids with HUVEC/MSC, growth % test/control
# Test: Anticancer human tumor DMS-114 cell line growth inhibition [AhR];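 further: spheroids exposed to agents for 7 days before readout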;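 on viability, T/C: 100% = DMSO vehicle control wells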
# Conditions: for pIC50: curve of first compound; for viability, T/C: stronger effect = lower value
# From the text: Multicellular complex tumor spheroid response to aryl hydrocarbon receptor antagonists in combination with a variety of drugs and investigational agents in selected tumor cell lines
# The current study was undertaken to assess response to aryl hydrocarbon receptor antagonists in combination with standard-of-care drugs and investigational agents in solid tumor complex spheroid models. Complex spheroids include a stromal component modeled by human endothelial cells (HUVEC) and fibroblasts modeled by human mesenchymal stem cells (MSCs). The concentration ranges selected for each drug and investigational agent were based upon clinically achievable concentrations if the clinical Cmax of the agent was known.
# Compounds. The drugs and investigational agents: BAY 2416964 (NSC825713), GNF351 (NSC835774), CH-223191 (NSC835775), CPI-455 (NSC825282), aza-TdCyd (NSC777586), decitabine (NSC127716), belinostat (NSC758774), entinostat (NSC756642), pevonedistat (NSC761192), tazemetostat (NSC777109), talazoparib (NSC765396), olaparib (NSC753686), selinexor (NSC780203), nedisertib (M3814, NSC802822), bortezomib (NSC756655), venetoclax (NSC766270), doxorubicin (NSC123127), elimusertib (BAY189344, NSC800525), ceralasertib (AZD6738, NSC777638), TAK-243 (NSC785004), alisertib (NSC759677), etoposide (NSC141540), topotecan (NSC609699), eribulin (NSC707389), gemcitabine (NSC613327), carboplatin (NSC241240), cisplatin (NSC119875), and SN-38 (NSC673596) were obtained from the National Cancer Institute (NCI) Developmental Therapeutics Program Chemical Repository (32). The FDA-approved anticancer drug set is available from the Developmental Therapeutics Program at https://dtp.cancer.gov/organization/dscb/obtaining/available plates.htm. […] The stock solutions were prepared in dimethyl sulfoxide (DMSO, Sigma-Aldrich, St. Louis, MO, cat. D2650), except for the platinum compounds which were prepared in saline (Quality Biological, Gaithersburg, MD, cat. 114-055-101), at 800-fold the tested concentration and stored at -70 degrees C prior to their use. All drugs and investigational agents were tested over a range starting from a high concentration at or near the clinical Cmax and decreasing in half-log increments. If the clinical Cmax for an agent had not been determined, the highest concentration tested was 10 microM (Table 1).
# Cell Culture. All cells were maintained in an incubator at 37 degrees C and 5% CO2 with 95% humidity. The PDC lines were cultured according to standard operating procedures established by the NCI PDMR (https://pdmr.cancer.gov). Briefly, all PDCs were thawed and cultured in Matrigel-coated flasks prepared with a working solution of 1X Ham's F-12 nutrient mix, without supplementation (Invitrogen, Waltham, MA, cat. 11765054), 100 U/mL penicillin-streptomycin (Invitrogen, cat. 15140122), and 2.5% Matrigel (Corning Inc., Corning, NY, cat. 354248) for the first three passages. All PDCs were cultured in complete DMEM/F-12 media containing advanced DMEM/F-12 (Invitrogen, cat. 12634028), 4.9% defined fetal bovine serum, heat inactivated (HyClone Laboratories Inc., Logan, UT, cat. SH30070.03HI), 389 ng/mL hydrocortisone (Sigma-Aldrich, cat. H4001), 9.7 ng/mL human EGF recombinant protein (Invitrogen, cat. PHG0313), 23.4 microg/mL adenine (Sigma-Aldrich, cat. A2786), 97.3 U/mL penicillin-streptomycin (Invitrogen, cat. 15140122), 1.9 mM L-glutamine (Invitrogen, cat. 25030081), and 9.7 microM Y-27632 dihydrochloride (Tocris Bioscience, Bristol, United Kingdom, cat. 1254). The PDCs were cultured in complete DMEM/F12 media without 10 microM Y-27632 dihydrochloride for at least two passages prior to the screen. The established cell lines NCI-H1341 and […] were cultured in DMEM/F-12, HEPES (Invitrogen, cat. 11330032), 5% defined fetal bovine serum (HyClone Laboratories Inc., cat. SH30070.03), ITS premix universal culture supplement [insulin (5 microg/mL), transferrin (5 microg/mL), and selenious acid (5 ng/mL)] […]
# [1] = second compound 0.1 µM, first compound 0.0316 µM
# [2] = second compound 0.1 µM, first compound 0.1 µM
# [3] = second compound 0.316 µM, first compound 0.0316 µM
# [4] = second compound 0.316 µM, first compound 0.1 µM
# [5] = second compound 1 µM, first compound 0.0316 µM
# [6] = second compound 1 µM, first compound 0.1 µM
# [7] = second compound 3.16 µM, first compound 0.0316 µM
# [8] = second compound 3.16 µM, first compound 0.1 µM
# [9] = second compound 10 µM, first compound 0.0316 µM
# [10] = second compound 10 µM, first compound 0.1 µM
# [11] = second compound 0.1 µM, first compound 0.316 µM
# [12] = second compound 0.1 µM, first compound 1 µM
# [13] = second compound 0.1 µM, first compound 3.16 µM
# [14] = second compound 0.1 µM, first compound 10 µM
# [15] = second compound 0.316 µM, first compound 0.316 µM
# [16] = second compound 0.316 µM, first compound 1 µM
# [17] = second compound 0.316 µM, first compound 3.16 µM
# [18] = second compound 0.316 µM, first compound 10 µM
# [19] = second compound 1 µM, first compound 0.316 µM
# [20] = second compound 1 µM, first compound 1 µM
# [21] = second compound 1 µM, first compound 3.16 µM
# [22] = second compound 1 µM, first compound 10 µM
# [23] = second compound 3.16 µM, first compound 0.316 µM
# [24] = second compound 3.16 µM, first compound 1 µM
# [25] = second compound 3.16 µM, first compound 3.16 µM
# [26] = second compound 3.16 µM, first compound 10 µM
# [27] = second compound 10 µM, first compound 0.316 µM
# [28] = second compound 10 µM, first compound 1 µM
# [29] = second compound 10 µM, first compound 3.16 µM
# [30] = second compound 10 µM, first compound 10 µM
SMILES,pIC50 (second compound 0.1 µM),pIC50 (second compound 0.316 µM),pIC50 (second compound 1 µM),pIC50 (second compound 3.16 µM),pIC50 (second compound 10 µM),"viability, T/C [1] [%]","viability, T/C [2] [%]","viability, T/C [3] [%]","viability, T/C [4] [%]","viability, T/C [5] [%]","viability, T/C [6] [%]","viability, T/C [7] [%]","viability, T/C [8] [%]","viability, T/C [9] [%]","viability, T/C [10] [%]","viability, T/C [11] [%]","viability, T/C [12] [%]","viability, T/C [13] [%]","viability, T/C [14] [%]","viability, T/C [15] [%]",further results
CC[C@@]1(O)C(=O)OCc2c1cc1n(c2=O)Cc2cc3c(CN(C)C)c(O)ccc3nc2-1 + CC(CO)NC(=O)c1cc(-c2ccc(Cl)cc2)nn(-c2cnn(C)c2)c1=O,7.46,7.49,7.43,7.49,7.48,51.9,27.2,46,26.9,54.6,21.9,51,26.4,48.1,25.4,,,,,,"viability, T/C (second compound 0.1 µM, first compound 0.000316 µM): 101%; viability, T/C (second compound 0.1 µM, first compound 0.001 µM): 103%; viability, T/C (second compound 0.1 µM, first compound 0.00316 µM): 95.7%; viability, T/C (second compound 0.1 µM, first compound 0.01 µM): 95.2%; viability, T/C (second compound 0.316 µM, first compound 0.000316 µM): 105%; viability, T/C (second compound 0.316 µM, first compound 0.001 µM): 99%; viability, T/C (second compound 0.316 µM, first compound 0.00316 µM): 83.2%; viability, T/C (second compound 0.316 µM, first compound 0.01 µM): 81.3%; viability, T/C (second compound 1 µM, first compound 0.000316 µM): 88.9%; viability, T/C (second compound 1 µM, first compound 0.001 µM): 95.2%; viability, T/C (second compound 1 µM, first compound 0.00316 µM): 90%; viability, T/C (second compound 1 µM, first compound 0.01 µM): 85.5%; viability, T/C (second compound 3.16 µM, first compound 0.000316 µM): 104%; viability, T/C (second compound 3.16 µM, first compound 0.001 µM): 100%; viability, T/C (second compound 3.16 µM, first compound 0.00316 µM): 92.1%; viability, T/C (second compound 3.16 µM, first compound 0.01 µM): 74.2%; viability, T/C (second compound 10 µM, first compound 0.000316 µM): 116%; viability, T/C (second compound 10 µM, first compound 0.001 µM): 105%; viability, T/C (second compound 10 µM, first compound 0.00316 µM): 95.1%; viability, T/C (second compound 10 µM, first compound 0.01 µM): 92.7%"
COc1cc(C2c3cc4c(cc3C(OC3OC5COC(C)OC5C(O)C3O)C3COC(=O)C23)OCO4)cc(OC)c1O (stereo not given) + CC(CO)NC(=O)c1cc(-c2ccc(Cl)cc2)nn(-c2cnn(C)c2)c1=O,6.24,6.33,6.35,6.37,6.31,87.4,88.4,95.9,88.3,97.7,89.9,90.4,94.8,94.4,97.7,64.3,34.2,25.8,13.2,55,"viability, T/C [16]: 34.3%; viability, T/C [17]: 25.8%; viability, T/C [18]: 13.4%; viability, T/C [19]: 56.3%; viability, T/C [20]: 31.4%; viability, T/C [21]: 22.7%; viability, T/C [22]: 14%; viability, T/C [23]: 52.8%; viability, T/C [24]: 32.9%; viability, T/C [25]: 23.6%; viability, T/C [26]: 12%; viability, T/C [27]: 58%; viability, T/C [28]: 32.9%; viability, T/C [29]: 22.2%; viability, T/C [30]: 12.7%"
Nc1ccn(C2OC(CO)C(O)C2(F)F)c(=O)n1 (stereo not given) + CC(CO)NC(=O)c1cc(-c2ccc(Cl)cc2)nn(-c2cnn(C)c2)c1=O,> 7.50,> 7.50,> 7.50,> 7.50,> 7.50,12.1,11.5,11.8,11.9,12.6,14.1,10.6,13.3,11.6,11.8,11.5,11.7,11.6,10.9,13,"viability, T/C [16]: 10.9%; viability, T/C [17]: 11.6%; viability, T/C [18]: 12.8%; viability, T/C [19]: 14.4%; viability, T/C [20]: 12.3%; viability, T/C [21]: 10.6%; viability, T/C [22]: 12.6%; viability, T/C [23]: 12.9%; viability, T/C [24]: 10.6%; viability, T/C [25]: 11.2%; viability, T/C [26]: 11.1%; viability, T/C [27]: 12.7%; viability, T/C [28]: 11.3%; viability, T/C [29]: 12.7%; viability, T/C [30]: 11.9%"
